Results published in ChEMBL document CHEMBL1221174, “Evolution of glutamate interactions during binding to a glutamate receptor” (Nat Chem Biol, 2005).
Active and inactive are the calls of the source. No cut-off for these calls is given here.

How the values were obtained:
[1] = Binding affinity to Glutamate receptor 2 E705D mutant S1S2 ligand binding domain assessed as induction protein vibrational state by time resolved FTIR difference spectra method
[2] = Binding affinity to Glutamate receptor 2 Y450F mutant S1S2 ligand binding domain assessed as induction protein vibrational state by time resolved FTIR difference spectra method

N[C@@H](CCC(=O)O)C(=O)O
Activity [1]: Active | Activity [2]: Active
